Results: patent US4067996A, “Phenylacetic acid derivatives” (Synthelabo, priority 1974, dated 1978)
Like-named read-outs stand apart in the source and are kept apart here.

Assays:
[1] = Acute toxicity in mice on oral administration; assay type: in vivo; settings: mouse, in vivo, read-out: LD 50 (acute toxicity)
Protocol: (§1) The acute toxicity was studied by oral administration to CDl mice of both sexes. The 50% lethal doses (LD 50) were determined graphically.
(§2) In a second series of experiments, the experimental technique was modified slightly: the compounds studied are dispersed in olive oil instead of being dissolved in water.

[2] = system: triglycerides in the serum; experiment: Hypolipaemic activity (triglycerides) in rats on oral administration (7 days); assay type: in vivo, male albino rats of the CDl race (Charles River); settings: daily for 7 days
Protocol: (§3) The reference substances chosen were clofibrate or ethyl 2-p-chlorophenoxy-2-methyl-propionate, and halofenate or 2-acetamido-ethyl2-p-chlorophenyl-2-m-trifluoromethylphenoxy-acetate.
(§4) The hypocholesterolaemic action was determined on male albino rats of the CDl race (Charles River) weighing on average 250 g and fed normally, the rats being divided into batches each of 10 animals. Daily doses of one of the compounds studied were administered orally for 7 days. On the 8th day, the contents of cholesterol and triglycerides in the blood were determined and compared with those of animals of the untreated comparison group. In this way it was possible graphically to evaluate, for each compound, the 30% active dose (AD 30), that is to say the daily dose which causes a 30% reduction in the content of cholesterol or of triglycerides in the serum.
(§5) *AD 30 = daily dose which causes a 30% reduction in the content of
as §2

[3] = system: cholesterol in the serum; experiment: Hypocholesterolaemic action in rats on oral administration (7 days); assay type: in vivo, male albino rats of the CDl race (Charles River); settings: daily for 7 days
Protocol: as §3, §4, §5, §2

[4] = system: CDl mice; experiment: Acute toxicity in mice on oral administration; assay type: in vivo; settings: Table III, second series, dispersed in olive oil
Protocol: as §1, §2

[5] = system: content of lipids (triglycerides and cholesterol) in the blood; experiment: Hypolipaemic and hypocholesterolaemic effect compared with reference substances (summary); assay type: in vivo, rats
Protocol: as §3, §4, §2

[6] = Table II, first series (dissolved in water)
[7] = Table III, second series, dispersed in olive oil

Row | Compound | LD50 ([1]; Table II, first series) | AD 30, triglycerides (daily dose which causes a 30% reduction in serum triglycerides) [2, 6] | AD 30, cholesterol (daily dose which causes a 30% reduction in serum cholesterol) [3, 6] | LD 50 (acute toxicity) [4] | AD 30, triglycerides (daily dose which causes a 30% reduction in serum triglycerides) [2, 7] | AD 30, cholesterol (daily dose which causes a 30% reduction in serum cholesterol) [3, 7] | times more active than clofibrate ([5]; relative to clofibrate) | times more active than halofenate ([5]; relative to halofenate) | LD50 [1, 7]
1 | CCOC(=O)C(C)(C)Oc1ccc(Cl)cc1 [Clofibrate, ethyl 2-p-chlorophenoxy-2-methyl-propionate, reference compound] | 1300 mg/kg | 200 mg/kg | 160 mg/kg |  |  |  |  |  | 
2 | CC(=O)NCCOC(=O)C(Oc1cccc(C(F)(F)F)c1)c1ccc(Cl)cc1 (centres unmarked) [Halofenate, 2-acetamido-ethyl2-p-chlorophenyl-2-m-trifluoromethylphenoxy-acetate, reference compound] | 1800 mg/kg | 50 mg/kg | 70 mg/kg |  |  |  |  |  | 
3 | CC(=O)NCCOC(=O)C(Oc1ccc(F)c(C(F)(F)F)c1)c1ccc(Cl)cc1 (centres unmarked) [SL C 149, 2-Acetylamino-ethyl 2-(4-chloro-phenyl)-2-(4-fluoro-3-trifluoromethyl-phenoxy)-acetate] | 2000 mg/kg | 12 mg/kg | 17 mg/kg | 2,000 mg/kg | 20 mg/kg | 30 mg/kg | about 15 times | four | 
4 | CCOC(=O)C(Oc1ccc(F)c(C(F)(F)F)c1)c1ccc(Cl)cc1 (centres unmarked) [SL C 150, Ethyl 2-(4-chloro-phenyl)-2-(4-fluoro-3-trifluoromethyl-phenoxy)-acetate] | > 2500 mg/kg | 25 mg/kg | 20 mg/kg |  |  |  |  |  | 
5 | O=C(O)C(Oc1ccc(F)c(C(F)(F)F)c1)c1ccc(Cl)cc1 (centres unmarked) [SL C 151, 2-(4-Chloro-phenyl)-2-(4-fluoro-3-trifluoromethyl-phenoxy)-acetic acid] | 2000 mg/kg | 12 mg/kg | 50 mg/kg |  |  |  |  |  | 
6 | NC(=O)C(Oc1ccc(F)c(C(F)(F)F)c1)c1ccc(Cl)cc1 (centres unmarked) [SL D 063] | > 2000 mg/kg | 20 mg/kg | > 100 mg/kg |  |  |  |  |  | 
7 | O=C(NCCO)C(Oc1ccc(F)c(C(F)(F)F)c1)c1ccc(Cl)cc1 (centres unmarked) [SL D 064, 2-(4-Fluoro-3-trifluoromethyl-phenoxy)-2-(4-chloro-phenyl)-N-(2-hydroxy-ethyl)-acetamide] | > 2000 mg/kg | 20 mg/kg | > 100 mg/kg |  |  |  |  |  | 
8 | O=C(OCc1cccnc1)C(Oc1ccc(F)c(C(F)(F)F)c1)c1ccc(Cl)cc1 (centres unmarked) [SL D 065] | > 2000 mg/kg | 35 mg/kg | 55 mg/kg |  |  |  |  |  | 
9 | CC(=O)NCCOC(=O)C(Oc1ccc(F)c(C(F)(F)F)c1)c1ccc(F)cc1 (centres unmarked) [SL D 097, 2-acetylamino-ethyl 2-(4-fluoro-3-trifluoromethyl-phenoxy)-2-(4-fluoro-phenyl)acetate] | > 2000 mg/kg | 25 mg/kg | > 100 mg/kg |  |  |  |  |  | 
10 | CN1CCC(OC(=O)C(Oc2ccc(F)c(C(F)(F)F)c2)c2ccc(Cl)cc2)CC1 (centres unmarked) [SL-D.123, 1-Methyl-piperidinyl-4 2-(4-fluoro-3-trifluoromethyl-phenoxy)-2-(4-chloro-phenyl)-acetate] |  |  |  |  | 20 mg/kg | 50 mg/kg |  |  | > 2000 mg/kg
11 | CN(C)C(=O)CCCOC(=O)C(Oc1ccc(F)c(C(F)(F)F)c1)c1ccc(Cl)cc1 (centres unmarked) [SL-D.126, N,N-Dimethyl-3-aminocarbonyl-propyl 2-(4-fluoro-3-trifluoromethyl-phenoxy)-2-(4-chloro-phenyl)-acetate] |  |  |  |  | 20 mg/kg | 70 mg/kg |  |  | > 2000 mg/kg
12 | CC1CC(OC(=O)C(Oc2ccc(F)c(C(F)(F)F)c2)c2ccc(Cl)cc2)CC(C)(C)C1 (centres unmarked) [SL-D.128, 3,3,5-Trimethyl-cyclohexyl-1 2-(4-fluoro-3-trifluoromethyl-phenoxy)-2-(4-chloro-phenyl)-acetate] |  |  |  |  | 10 mg/kg | 80 mg/kg |  |  | > 2000 mg/kg
